Results: patent US20030153552A1, “Method of treating chemical dependency in mammals and a composition therefor” (priority 2002, published 2003)

Assay: plasma concentration of ibogaine and its metabolite 12-hydroxy ibogamine over time after ibogaine administration to a human patient
Format: in vivo
Method: An amount of ibogaine was administered to a human patient, and the plasma concentration of both ibogaine and a metabolite thereof, 12-hydroxy ibogamine, were observed as a function of time.
FIG. 1 illustrates the result of administering a certain dosage of ibogaine to a human patient, where the plasma concentration of ibogaine is measured over time. In essence, a peak plasma concentration of about 1,100 ng/ml is observed at administration. It is also notable that at about 11 hours after ibogaine administration, plasma concentration of ibogaine diminished to less than 400 ng/ml. After about 24 hours, plasma concentration diminished to less than 200 ng/ml. Thus, ibogaine is rather quickly eliminated by the patient.
By contrast, FIG. 2 illustrates the variation of noribogaine plasma concentration with time as a metabolite from the same ibogaine administration described above. In essence, a peak plasma concentration of noribogaine of about 590 ng/ml was reached only after about 11 hours from administration. Thereafter, even at 24 hours, a plasma concentration of greater than 500 ng/ml was observed.

SMILES | peak plasma concentration of ibogaine (after ibogaine administration, (FIG. 1)) | concentration at 24 h (plasma, after about 24 hours (FIG. 1)) [ng/mL] | concentration at 11 h (plasma, at about 11 hours after ibogaine administration (FIG. 1)) [ng/mL] | plasma half-life compared with ibogaine (after ibogaine administration) | plasma concentration of noribogaine (at 24 hours, noribogaine as metabolite from ibogaine administration (FIG. 2)) | time to peak plasma concentration of noribogaine (from ibogaine administration, noribogaine as metabolite (FIG. 2)) | peak plasma concentration of noribogaine (noribogaine as metabolite from ibogaine administration (FIG. 2))
CC[C@H]1C[C@H]2C[C@H]3c4[nH]c5ccc(OC)cc5c4CCN(C2)C13 [ibogaine, reference compound] | about 1,100 ng/ml | < 200 | < 400 |  |  |  | 
CC[C@H]1C[C@H]2C[C@H]3c4[nH]c5ccc(O)cc5c4CCN(C2)[C@@H]13 [noribogaine, 12-hydroxy ibogamine] |  |  |  | much longer plasma half-life than ibogaine | greater than 500 ng/ml | about 11 hours | about 590 ng/ml
